Data from patent US5459270A, “Azacyclic compounds, processes for their preparation and pharmaceutical compositions containing them” (Merck Sharp & Dohme Limited, priority 1991, dated 1995).
Counter-ions that a name gives are not always drawn.

What follows are molecules tested against human neurokinin-1-receptor (NK1R) (Homo sapiens, UniProt P25103) (assay: biochemical). Settings: IC50 @ NKIR, displacement of 125I-substance P; human NK1R in COS or CHO cells.
Type: binding
Procedure: To express the cloned human neurokinin-1-receptor (NK1R) transiently in COS, the cDNA for the human NK1R was cloned into the expression vector pCDM9 which was derived from pCDM8 (INVITROGEN) by inserting the ampicillin resistance gene (nucleotide 1973 to 2964 from BLUESCRIPT SK+ (trademark, […], La Jolla, Calif., USA)) into the Sac II site. Transfection of 20 ug of the plasmid DNA into 10 million COS cells was achieved by electroporation in 800 μl of transfection buffer (135 mM NaCl, 1.2 mM CaCl2, 1.2 mM MgCl2, 2.4 mM K2 HPO4, 0.6 mM KH2 PO4, 10 mM glucose, 10 mM N-2-hydroxyethyl-piperazine-N'-2-ethane sulphonic acid (HEPES) pH 7.4) at 260 V and 950 μF using the IBI GENEZAPPER (trademark IBI, New Haven, Conn., USA). The cells were incubated in 10% fetal calf serum, 2 mM glutamine, 100 U/ml penicillin-streptomycin, and 90% DMEM media (GIBCO, Grand Island, N.Y., USA) in 5% CO2 at 37° C. for three days before the binding assay.
To establish a stable cell line expressing cloned human NK1R, the cDNA was subcloned into the vector pRcCMV (INVITROGEN). Transfection of 20 μg of the plasmid DNA into CHO cells was achieved by electroporation in 800 μl of transfection buffer supplemented with 0.625 mg/ml Herring sperm DNA at 300 V and 950 μF using the IBI GENEZAPPER (IBI). The transfected cells were incubated in CHO media [10% fetal calf serum, 100 U/ml penicillin-streptomycin, 2 mM glutamine, 1/500 hypoxanthine-thymidine (ATCC), 90% IMDM media (JRH BIOSCIENCES, Lenexa, Kans., USA), 0.7 mg/ml G418 (GIBCO)] in 5% CO2 at 37° C. until colonies were visible. Each colony was separated and propagated. The cell clone with the highest number of human NK1R was selected for subsequent applications such as drug screening.
The binding assay of human NK1R expressed in either COS or CHO cells is based on the use of ^125 I-substance P (^125 I-SP, from DU PONT, Boston, Mass.) as a radioactively labeled ligand which competes with unlabeled substance P or any other ligand for binding to the human NK1R. […] The tubes were incubated at 4° C. or at room temperature for 1 hour with gentle shaking. The bound radioactivity was separated from unbound radioactivity by GF/C filter (BRANDEL, Gaithersburg, Md.) which was pre-wetted with 0.1% polyethylenimine. The filter was washed with 3 ml of wash buffer (50 mM Tris pH 7.5, 5 mM MnCl2, 50 mM NaCl) three times and its radioactivity was determined by gamma counter.

Chain of human neurokinin-1-receptor (NK1R) (P25103 whole entry): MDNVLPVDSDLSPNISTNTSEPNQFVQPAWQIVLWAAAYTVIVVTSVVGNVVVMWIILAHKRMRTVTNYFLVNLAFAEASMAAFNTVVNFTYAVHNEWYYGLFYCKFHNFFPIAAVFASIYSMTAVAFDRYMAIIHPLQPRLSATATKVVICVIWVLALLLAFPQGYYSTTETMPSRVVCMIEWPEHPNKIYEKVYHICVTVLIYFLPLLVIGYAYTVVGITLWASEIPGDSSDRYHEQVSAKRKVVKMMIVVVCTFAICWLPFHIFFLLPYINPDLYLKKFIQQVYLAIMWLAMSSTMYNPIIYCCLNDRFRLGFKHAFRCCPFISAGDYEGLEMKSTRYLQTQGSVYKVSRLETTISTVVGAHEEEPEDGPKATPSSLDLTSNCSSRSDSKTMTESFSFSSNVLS

Row | Molecule | IC50
1 | Cc1cc(CO[C@H]2CCCN(C(=O)OC(C)(C)C)[C@H]2c2ccccc2)cc([Si](C)(C)C)c1 [Example 33] | > 300 nM
2 | Cc1cc(CO[C@H]2CCCN[C@H]2c2ccccc2)cc([Si](C)(C)C)c1 [Example 44, cis-3-((3-methyl-5-trimethylsilyl)benzyloxy)-2-phenyl piperidine] | 0.3 nM

Same assay, conditions: displacement of 125I-substance P; human NK1R in COS or CHO cells; read-out: IC50 @ NKIR

Row | Molecule | IC50
3 | CN1CCC[C@H](OCc2cc(C(F)(F)F)cc(C(F)(F)F)c2)[C@@H]1c1ccccc1 [Example 10, (+)-cis-3-((3,5-Bis(trifluoromethyl)phenyl)methyloxy)-1-methyl-2-phenylpiperidine] | 20 nM
4 | FC(F)(F)c1cc(CO[C@H]2CCCN[C@H]2c2ccccc2)cc(C(F)(F)F)c1 [Example 11, (-)-cis-3-((3,5-Bis(trifluoromethyl)phenyl)methyloxy)-2-phenyl piperidine hydrochloride salt] | 350 nM
5 | C[N+]1(C)CCC[C@H](OCc2cc(C(F)(F)F)cc(C(F)(F)F)c2)[C@@H]1c1ccccc1 [Example 14, (2S,3S)-3-((3,5-Bis(trifluoromethyl)phenyl)methyloxy)-1,1-dimethyl2-phenylpiperidinium iodide] | 100 nM
6 | O=CN1CCC[C@H](OCc2cc(C(F)(F)F)cc(C(F)(F)F)c2)[C@@H]1c1ccccc1 [Example 16, (2S,3S)-1-Formyl-3-((3,5-bis(trifluoromethyl)phenyl)methyloxy)-2-phenyl piperidine] | 80 nM
7 | CC1CC[C@H](OCc2cc(C(F)(F)F)cc(C(F)(F)F)c2)[C@H](c2ccccc2)N1 (stereo partly drawn) [Example 20, cis-3-(3,5-Bis(trifluoromethyl)phenyl)methyloxy-6-methyl-2-phenyl piperidinium hydrochloride] | 2 nM
8 | Cc1cc(I)cc(CO[C@H]2CCCN[C@H]2c2ccccc2)c1 [Example 36] | 0.5 nM

The remaining lines, values ahead:

Row | IC50 | Molecule
9 | 45 nM | CC1(OCc2cc(C(F)(F)F)cc(C(F)(F)F)c2)CCCNC1c1ccccc1 (stereo not shown) [Example 48, 3-((3,5-Bis(trifluoromethyl)phenyl)methyloxy)-3-methyl-2-phenylpiperidine oxalate salt]
10 | 2 nM | OCC1CC[C@H](OCc2cc(C(F)(F)F)cc(C(F)(F)F)c2)[C@H](c2ccccc2)N1 (stereo partly shown) [Example 55]
11 | 25 nM | CC(C)(C)NC(=O)CN1CCC[C@H](OCc2cc(C(F)(F)F)cc(C(F)(F)F)c2)[C@@H]1c1ccccc1 [Example 56, (2S,3S)-3-((3,5-Bis(trifluoromethyl)phenyl)methyloxy-1-((N-t-butyl)carboxamidomethyl)-2-phenylpiperidinium hydrochloride]
12 | 2.5 nM | O=C(CN1CCC[C@H](OCc2cc(C(F)(F)F)cc(C(F)(F)F)c2)[C@@H]1c1ccccc1)NC1CC1 [Example 57, (2S,3S)-3-((3,5-Bis(trifluoromethyl)phenyl)methyloxy)-1-((N-cyclopropyl)-2-phenylpiperidinium hydrochloride]
13 | 20 nM | cis-3-((3,5-Bis(trifluoromethyl)phenyl)methyloxy-1-(N-benzylcarboxamido)methyl-2-phenyl piperidinium hydrochloride [Example 49]
